Reference: patent US20250059205A1, “Heterocyclic Compounds and Methods of Use” (AMGEN INC., priority 2021, published 2025)

Tests used:
[1] = target: His-tagged KRAS G12D protein (Homo sapiens, UniProt P01116, G12D); experiment: KRAS G12D TR-FRET Assay; format: binding
[2] = target: GDP-bound KRAS protein (aa 1-169), containing both G12D and C118A amino acid substitutions (Homo sapiens, UniProt P01116, C118A/G12D); experiment: KRAS G12D Coupled Nucleotide Exchange Assay; format: biochemical; conditions: 2 h compound pre-incubation
Experimental: Following compound pre-incubation, purified SOS protein (aa 564-1049) and GTP (Roche 10106399001) were added to the assay wells and incubated for an additional 30 min. […] The assay plates were then read on a PerkinElmer EnVision Multilabel Reader, using AlphaScreen® technology, and data were analyzed using a 4-parameter logistic model to calculate IC50 values.

[3] = tested on: Phosphorylation of ERK1/2 in AsPC-1 cells; experiment: Phospho-ERK1/2 MSD Assay (AsPC-1 cells); format: cell-based; conditions: Homo sapiens, ASPC1, 2 h, 2 hours treatment, read-out: p-ERK (AsPC-1 cells) IC50
How it was run: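 Read-out: MSD electrochemiluminescent detection of phosphorylated ERK1/2 in whole-cell lysates, fitted to a 4-parameter logistic curve for IC50. Prior to lysis, AsPC-1 cells (25,000 per well) received a 2 h compound dose-response at 37 °C.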

[4] = tested on: Phosphorylation of ERK1/2 in A-427 cells; experiment: Phospho-ERK1/2 MSD Assay (A-427 cells); format: cell-based; conditions: Homo sapiens, A-427, 2 h, 2 h treatment, read-out: p-ERK (A427 cells) IC50
How it was run: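 ERK1/2 phosphorylation measured by Meso Scale whole-cell lysate assay after A-427 cells were exposed to a titration of compound for 2 h at 37 °C.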

Chain of GDP-bound KRAS protein (aa 1-169), containing both G12D and C118A amino acid substitutions (P01116 1-169 isoform P01116-2 G12D/C118A): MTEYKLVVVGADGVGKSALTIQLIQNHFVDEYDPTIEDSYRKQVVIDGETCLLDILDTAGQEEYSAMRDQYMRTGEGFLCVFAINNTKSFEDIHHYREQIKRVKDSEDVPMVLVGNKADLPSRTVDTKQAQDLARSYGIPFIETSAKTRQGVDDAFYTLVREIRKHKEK
Chain of His-tagged KRAS G12D protein (P01116 1-188 isoform P01116-2 G12D): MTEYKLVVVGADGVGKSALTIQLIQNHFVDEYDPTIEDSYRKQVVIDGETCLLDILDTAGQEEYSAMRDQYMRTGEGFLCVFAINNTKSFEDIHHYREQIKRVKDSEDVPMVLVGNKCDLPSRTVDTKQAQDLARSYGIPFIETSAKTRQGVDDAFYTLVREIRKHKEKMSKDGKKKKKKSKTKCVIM

Compound	IC50 [1]	Avg 2 h Coupled Exchange IC50 [2]	IC50 [3]	IC50 [4]
Fc1c(-c2c(C3CC3)ccc3[nH]ncc23)ccc2c(N3C[C@H]4CC[C@@H](C3)N4)nc(OC[C@@]34CCCN3C[C@H](F)C4)nc12 [Example 193, 4-((1R,5S)-3,8-diazabicyclo[3.2.1]octan-3-yl)-7-(5-cyclopropyl-1H-indazol-4-yl)-8-fluoro-2-(((2R,7aS)-2-fluorotetrahydro-1H-pyrrolizin-7a(5H)-yl)methoxy) quinazoline]	15 nM	10 nM	1080 nM	482 nM
Fc1c(-c2c(C(F)(F)F)ccc3[nH]ncc23)ccc2c(N3C[C@H]4CC[C@@H](C3)N4)nc(OC[C@@]34CCCN3C[C@H](F)C4)nc12 [Example 194, 4-((1R,5S)-3,8-diazabicyclo[3.2.1]octan-3-yl)-8-fluoro-2-(((2R,7aS)-2-fluorotetrahydro-1H-pyrrolizin-7a(5H)-yl)methoxy)-7-(5-(trifluoromethyl)-1H-indazol-4-yl)quinazoline]	14 nM	10 nM	815 nM	843 nM
Cc1ccc2[nH]ncc2c1-c1ccc2c(N3C[C@H]4CC[C@@H](C3)N4)nc(OC[C@@]34CCCN3C[C@H](F)C4)nc2c1F [Example 195, 4-((1R,5S)-3,8-diazabicyclo[3.2.1]octan-3-yl)-8-fluoro-2-(((2R,7aS)-2-fluorotetrahydro-1H-pyrrolizin-7a(5H)-yl)methoxy)-7-(5-methyl-1H-indazol-4-yl)quinazoline]	40 nM	17 nM	2670 nM	2380 nM
Fc1c(-c2c(Cl)ccc3[nH]ncc23)ccc2c(N3C[C@H]4CC[C@@H](C3)N4)nc(OC[C@@]34CCCN3C[C@H](F)C4)nc12 [Example 196, 4-((1R,5S)-3,8-diazabicyclo[3.2.1]octan-3-yl)-7-(5-chloro-1H-indazol-4-yl)-8-fluoro-2-(((2R,7aS)-2-fluorotetrahydro-1H-pyrrolizin-7a(5H)-yl)methoxy) quinazoline]	37 nM	20 nM	2310 nM	1360 nM
N#Cc1ccc2[nH]ncc2c1-c1ccc2c(N3C[C@H]4CC[C@@H](C3)N4)nc(OC[C@@]34CCCN3C[C@H](F)C4)nc2c1F [Example 197, 4-(4-((1R,5S)-3,8-Diazabicyclo[3.2.1]octan-3-yl)-8-fluoro-2-(((2R,7aS)-2-fluorotetrahydro-1H-pyrrolizin-7a(5H)-yl)methoxy)quinazolin-7-yl)-1H-indazole-5-carbonitrile]	108 nM	54 nM	> 10000 nM	4030 nM
C=C(C)c1ccc2[nH]ncc2c1-c1ccc2c(N3C[C@H]4CC[C@@H](C3)N4)nc(OC[C@@]34CCCN3C[C@H](F)C4)nc2c1F [Example 198, 4-((1R,5S)-3,8-Diazabicyclo[3.2.1]octan-3-yl)-8-fluoro-2-(((2R,7aS)-2-fluorotetrahydro-1H-pyrrolizin-7a(5H)-yl)methoxy)-7-(5-(prop-1-en-2-yl)-1H-indazol-4-yl)quinazoline]	42 nM	18 nM	2930 nM	5270 nM
CCc1c(F)ccc2cc(O)cc(-c3c(O)cc4c(N5C[C@H]6CC[C@@H](C5)N6)nc(OC[C@@]56CCCN5C[C@H](F)C6)nc4c3F)c12 [Example 199, 4-((1R,5S)-3,8-Diazabicyclo[3.2.1]octan-3-yl)-7-(8-ethyl-7-fluoro-3-hydroxynaphthalen-1-yl)-8-fluoro-2-(((2R,7aS)-2-fluorotetrahydro-1H-pyrrolizin-7a(5H)-yl)methoxy)quinazolin-6-ol]	3 nM	4 nM	70 nM	9 nM
CCc1c(F)ccc2cc(O)cc(-c3c(O)cc4c(N5[C@@H]6CC[C@H]5CNC6)nc(OC[C@@]56CCCN5C[C@H](F)C6)nc4c3F)c12 [Example 200, 4-((1R,5S)-3,8-diazabicyclo[3.2.1]octan-8-yl)-7-(8-ethyl-7-fluoro-3-hydroxynaphthalen-1-yl)-8-fluoro-2-(((2R,7aS)-2-fluorotetrahydro-1H-pyrrolizin-7a(5H)-yl)methoxy) quinazolin-6-ol]	4 nM	4 nM	54 nM	11 nM
CCc1c(F)ccc2cc(O)cc(-c3cc4nc(OC[C@@]56CCCN5C[C@H](F)C6)nc(N5C[C@H]6CC[C@@H](C5)N6)c4cc3O)c12 [Example 201, 4-((1R,5S)-3,8-diazabicyclo[3.2.1]octan-3-yl)-7-(8-ethyl-7-fluoro-3-hydroxynaphthalen-1-yl)-2-(((2R,7aS)-2-fluorotetrahydro-1H-pyrrolizin-7a(5H)-yl)methoxy) quinazolin-6-ol]	3 nM	6 nM	45 nM	16 nM
CCc1c(F)ccc2cc(O)cc(-c3c(N)cc4c(N5C[C@H]6CC[C@@H](C5)N6)nc(OC[C@@]56CCCN5C[C@H](F)C6)nc4c3F)c12 [Example 202, 4-(6-Amino-4-((1R,5S)-3,8-diazabicyclo[3.2.1]octan-3-yl)-8-fluoro-2-(((2R,7aS)-2-fluorotetrahydro-1H-pyrrolizin-7a(5H)-yl)methoxy)quinazolin-7-yl)-5-ethyl-6-fluoronaphthalen-2-ol]	4 nM	4 nM	175 nM	9 nM
CCc1c(F)ccc2cc(O)cc(-c3cc4nc(OC[C@@]56CCCN5C[C@H](F)C6)nc(N5C[C@H]6CC[C@@H](C5)N6)c4cc3N)c12 [Example 203, 4-(6-Amino-4-((1R,5S)-3,8-diazabicyclo[3.2.1]octan-3-yl)-2-(((2R,7aS)-2-fluorotetrahydro-1H-pyrrolizin-7a(5H)-yl)methoxy)quinazolin-7-yl)-5-ethyl-6-fluoronaphthalen-2-ol]	6 nM	2 nM	171 nM	62 nM
N#Cc1cccc2cc(O)cc(-c3c(F)cc4c(N5C[C@H]6CC[C@@H](C5)N6)nc(OC[C@@]56CCCN5C[C@H](F)C6)nc4c3F)c12 [Example 204, 8-(4-((1R,5S)-3,8-Diazabicyclo[3.2.1]octan-3-yl)-6,8-difluoro-2-(((2R,7aS)-2-fluorotetrahydro-1H-pyrrolizin-7a(5H)-yl)methoxy)quinazolin-7-yl)-6-hydroxy-1-naphthonitrile]	2 nM	3 nM	98 nM	26 nM
N#Cc1cccc2cc(O)cc(-c3ccc4c(N5C[C@H]6CC[C@@H](C5)N6)nc(OC[C@@]56CCCN5C[C@H](F)C6)nc4c3F)c12 [Example 205, 8-(4-((1R,5S)-3,8-Diazabicyclo[3.2.1]octan-3-yl)-8-fluoro-2-(((2R,7aS)-2-fluorotetrahydro-1H-pyrrolizin-7a(5H)-yl)methoxy)quinazolin-7-yl)-6-hydroxy-1-naphthonitrile]	6 nM	7 nM	293 nM	71 nM
Oc1cc(-c2c(F)cc3c(N4C[C@H]5CC[C@@H]4CN5)nc(OC[C@@]45CCCN4C[C@H](F)C5)nc3c2F)c2ccccc2c1Cl [Example 206, 4-(4-((1R,4R)-2,5-Diazabicyclo[2.2.2]octan-2-yl)-6,8-difluoro-2-(((2R,7aS)-2-fluorotetrahydro-1H-pyrrolizin-7a(5H)-yl)methoxy)quinazolin-7-yl)-1-chloronaphthalen-2-ol]	30 nM	42 nM	705 nM	116 nM
Cc1ccc2[nH]nc(C)c2c1-c1c(Cl)cc2c(N3C[C@H]4CC[C@@H](C3)N4)nc(OC[C@@]34CCCN3C[C@H](F)C4)nc2c1F [Example 207, 4-((1R,5S)-3,8-Diazabicyclo[3.2.1]octan-3-yl)-6-chloro-7-(3,5-dimethyl-1H-indazol-4-yl)-8-fluoro-2-(((2R,7aS)-2-fluorotetrahydro-1H-pyrrolizin-7a(5H)-yl)methoxy)quinazoline]	7 nM	7 nM	348 nM	202 nM
Cc1ccc2[nH]nc(C)c2c1-c1c(F)cc2c(N3C[C@H]4CC[C@@H](C3)N4)nc(OC[C@@]34CCCN3C[C@H](F)C4)nc2c1F [Example 208, 4-((1R,5S)-3,8-diazabicyclo[3.2.1]octan-3-yl)-7-(3,5-dimethyl-1H-indazol-4-yl)-6,8-difluoro-2-(((2R,7aS)-2-fluorotetrahydro-1H-pyrrolizin-7a(5H)-yl)methoxy) quinazoline]	18 nM	8 nM	843 nM	484 nM
Cc1ccc2[nH]nc(C)c2c1-c1ccc2c(N3C[C@H]4CC[C@@H](C3)N4)nc(OC[C@@]34CCCN3C[C@H](F)C4)nc2c1F [Example 209, 4-((1R,5S)-3,8-diazabicyclo[3.2.1]octan-3-yl)-7-(3,5-dimethyl-1H-indazol-4-yl)-8-fluoro-2-(((2R,7aS)-2-fluorotetrahydro-1H-pyrrolizin-7a(5H)-yl)methoxy) quinazoline]	68 nM	24 nM	2570 nM	1620 nM
